# Test: Acute intervention: nutrikinetics of plasma metabolites after ingestion of L. citriodora extract (untargeted HPLC-ESI-QTOF-MS)
# Experimental: A total of 25 healthy individuals participated, with an average age of 27 ± 9 years and a mean body mass index (BMI) of 23 ± 3 kg/m^2. None of the participants were taking any medications or nutritional supplements nor did they have any chronic diseases or gastrointestinal issues. The sample size was established based on findings from previous bioavailability research.[14] All participants provided informed consent before participating in the study.
# The intervention study was carried out at Miguel Hernández University. Following an overnight fast, the volunteers were categorized into the subsequent groups: a subgroup to evaluate the LC leaf extract (n = 8), another for the OE leaf extract (n = 8), and the placebo subgroup (n = 9). This was a double-blind study, in which sample collection and treatment were carried out uniformly across all three subgroups.
# Water was provided ad libitum. Prior to the ingestion of the capsule, a nurse inserted a cannula into the ulnar vein of each volunteer’s nondominant arm, and blood samples were drawn into EDTA-coated tubes at baseline (t = 0). Blood samples were then collected at 0.5, 1, 2, 4, 6, 8, and 10 h after the consumption of the 500 mg capsule. Plasma was separated through centrifugation (10 min at 3000 rpm and 4 °C) and stored at −80 °C until further analysis.
# Plasma samples were initially treated using a mixture of methanol and ethanol (50:50; v:v) to remove proteins, following previously reported protocols.[19] During the sample treatment, pooled quality controls (pooled-QC) were prepared by combining equal aliquots from each sample. These QC samples were processed by using the same protocols as the experimental biological samples.
# A reversed-phase analytical C18 column (Agilent Zorbax Eclipse Plus, 1.8 μm, 4.6 × 150 mm^2) with a protective cartridge with the same packing was used. MS data were acquired in negative ionization mode, operating in full scan across a mass-to-charge ratio (m/z) range of 50–1700. The analytical method used was adapted from that described by Villegas-Aguilar et al.[19]
# Metabolite nutrikinetics were studied using PKSolver, an add-in program for pharmacokinetic data analysis in Microsoft Excel. The time to reach the maximum concentration (observed Tmax) was calculated for each significant metabolite. As an untargeted metabolomic approach was used to detect the circulating metabolites, these were not quantified. Therefore, the maximum concentration (Cmax) and area under the curve (AUC) parameters were calculated in a relative way by using the deconvoluted chromatographic areas. […] Statistical differences were determined by unpaired t tests. All p values less than 0.05 were considered statistically significant.
# [1] = 0.5 h after L. citriodora extract
# [2] = 1 h after L. citriodora extract
# [3] = 2 h after L. citriodora extract
# [4] = 4 h after L. citriodora extract
# [5] = 6 h after L. citriodora extract
# [6] = 8 h after L. citriodora extract
# [7] = 10 h after L. citriodora extract
# [8] = human plasma, 500 mg capsule of L. citriodora (LC) extract, oral, mean ± SD
Compound,"mean chromatographic area in plasma, T0.5 [1]","mean chromatographic area in plasma, T1 [2]","mean chromatographic area in plasma, T2 [3]","mean chromatographic area in plasma, T4 [4]","mean chromatographic area in plasma, T6 [5]","mean chromatographic area in plasma, T8 [6]","mean chromatographic area in plasma, T10 [7]",AUC: area under the zero-moment curve [8],Cmax: relative maximum plasma level [8],observed Tmax: time required to reach Cmax [8],"AUC: area under the zero-moment curve (human, in vivo, po, 500 mg)","Cmax: relative maximum plasma level (human, in vivo, po, 500 mg)","observed Tmax: time required to reach Cmax (human, in vivo, po, 500 mg)","mean chromatographic area in plasma, T0.5 (in vivo)","mean chromatographic area in plasma, T1 (in vivo)","mean chromatographic area in plasma, T2 (in vivo)","mean chromatographic area in plasma, T4 (in vivo)","mean chromatographic area in plasma, T6 (in vivo)","mean chromatographic area in plasma, T8 (in vivo)","mean chromatographic area in plasma, T10 (in vivo)"
"CC1=CC(=O)CC(C)(C)C1(O)/C=C/C(C)=C/COC1OC(CO)C(O)C(O)C1O (single isomer, unassigned; isomer 3) [abscisic alcohol 11-glucoside isomer 3, abscisic alcohol 11-glucoside]",56,258,13,13,0,0,0,267 ± 94 relative chromatographic area/h,258 ± 95 relative chromatographic area,1 ± 0 h,,,,,,,,,,
C=C(C)[C@@H]1[C@H]2OC(=O)[C@@H]1[C@]1(O)C[C@H]3O[C@]34C(=O)O[C@H]2[C@]14C [picrotoxinin],32,102,91,0,0,0,0,231 ± 102 relative chromatographic area/h,136 ± 44 relative chromatographic area,1.3 ± 0.5 h,,,,,,,,,,
"O=C(O)C=Cc1ccc(OS(=O)(=O)O)c(O)c1 (single isomer, unassigned; isomer 1) [caffeic acid 4-sulfate isomer 1, caffeic acid 4-sulfate]",,,,,,,,,,,1157 ± 757 relative chromatographic area/h,325 ± 147 relative chromatographic area,3 ± 1 h,21,89,280,177,86,67,0
"O=C(O)C=Cc1ccc(OS(=O)(=O)O)c(O)c1 (single isomer, unassigned; isomer 2) [caffeic acid 4-sulfate isomer 2, caffeic acid 4-sulfate]",,,,,,,,,,,1656 ± 1922 relative chromatographic area/h,357 ± 268 relative chromatographic area,3 ± 2 h,0,67,277,266,189,129,22
gardoside [gardoside isomer 2],,,,,,,,,,,2015 ± 547 relative chromatographic area/h,508 ± 110 relative chromatographic area,2.3 ± 0.7 h,123,328,480,284,151,51,15
pteroside Z [pteroside Z isomer 1],,,,,,,,,,,123 ± 53 relative chromatographic area/h,120 ± 22 relative chromatographic area,1.2 ± 0.4 h,0,105,28,0,0,0,0
CC(O)/C=C\C/C=C\C/C=C\CCCCCCCC(=O)O (centres unmarked) [17-hydroxylinolenic acid],81,428,445,184,31,12,20,1621 ± 1914 relative chromatographic area/h,335 ± 306 relative chromatographic area,6 ± 4 h,,,,,,,,,,
COc1cc(/C=C/C(=O)O)ccc1O[C@@H]1O[C@H](C(=O)O)[C@@H](O)[C@H](O)[C@H]1O [ferulic acid 4-O-glucuronide],0,0,66,163,217,177,89,1304 ± 1975 relative chromatographic area/h,282 ± 358 relative chromatographic area,5 ± 2 h,,,,,,,,,,
"O=C(O)CCCCCCCCC(=O)O [sebacic acid Isomer 2, sebacic acid]",,,,,,,,,,,,,,15,86,86,15,,,
"COc1cc(C(=O)O)ccc1OS(=O)(=O)O [vanillic acid 4-O-sulfate isomer 2, vanillic acid 4-O-sulfate]",18,102,43,0,0,0,0,152 ± 118 relative chromatographic area/h,119 ± 41 relative chromatographic area,1.2 ± 0.4 h,,,,,,,,,,
pteroside Z [pteroside Z isomer 2],,,,,,,,,,,310 ± 84 relative chromatographic area/h,181 ± 58 relative chromatographic area,2 ± 1 h,28,152,97,18,0,0,0
"CC1=CC(=O)CC(C)(C)C1(O)/C=C/C(C)=C/COC1OC(CO)C(O)C(O)C1O (single isomer, unassigned; isomer 2) [abscisic alcohol 11-glucoside isomer 2, abscisic alcohol 11-glucoside]",111,519,176,23,0,0,0,757 ± 174 relative chromatographic area/h,562 ± 251 relative chromatographic area,2 ± 1 h,,,,,,,,,,
CC(C)=C1CC2(C)C(=CC1=O)CCC(OC1OC(CO)C(O)C(O)C1O)C2C (centres unmarked) [isopetasoside],95,394,200,25,14,0,0,722 ± 166 relative chromatographic area/h,455 ± 162 relative chromatographic area,2 ± 1 h,,,,,,,,,,
"CC1=CC(=O)CC(C)(C)C1(O)/C=C/C(C)=C/COC1OC(CO)C(O)C(O)C1O (single isomer, unassigned; isomer 1) [abscisic alcohol 11-glucoside isomer 1, abscisic alcohol 11-glucoside]",50,188,61,0,0,0,0,259 ± 134 relative chromatographic area/h,202 ± 82 relative chromatographic area,1.2 ± 0.4 h,,,,,,,,,,
